# Data reported in patent US7803792B2, “Quaternary ammonium compounds” (Asahi Kasei Pharma Corporation, priority 2002, dated 2010).
# Biological target: T1, human IBAT (Homo sapiens, UniProt Q12908)
# T1 construct: expressed in transfected cells; host or cells: Cos 7
# T1 sequence (Q12908 1-348): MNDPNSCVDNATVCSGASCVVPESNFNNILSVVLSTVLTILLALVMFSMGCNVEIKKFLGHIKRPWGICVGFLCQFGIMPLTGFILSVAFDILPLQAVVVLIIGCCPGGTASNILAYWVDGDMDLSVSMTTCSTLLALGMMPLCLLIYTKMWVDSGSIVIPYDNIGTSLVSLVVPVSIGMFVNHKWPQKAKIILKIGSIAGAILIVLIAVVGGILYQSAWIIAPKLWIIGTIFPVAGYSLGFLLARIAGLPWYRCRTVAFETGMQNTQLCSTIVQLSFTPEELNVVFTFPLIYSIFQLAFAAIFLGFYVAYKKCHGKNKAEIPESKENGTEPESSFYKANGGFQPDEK
# Assay: In vitro assay of temporarily expressed human IBAT transporter using Cos 7 cells (Test Example 8)
# Format: cell-based
# Details: Cos 7 cells temporarily expressing human IBAT; [3H] taurocholate 8 μM, 37° C., 60 minutes
# Procedure: In Vitro Assay of Compounds Which Inhibit Temporarily Expressed Human IBAT Transporter or Rat IBAT Transporter Using Cos 7 Cells
# In this test example, the in vitro assay of the compounds which inhibit temporarily expressed human IBAT transporter or rat IBAT transporter using Cos cells was carried out according to the method described in Am. J. Physiol., 274, G157-169.
# That is, […] Cos 7 were inoculated on a 24-well cell plate. One day later, 0.3 μg per well of cDNA of a human IBAT or a rat IBAT was transfected by using FuGENE6 (manufactured by ROCHE PHARMACEUTICAL CO., LTD.). For the assay, the cells cultured for one day after the transfection were used and the following procedure was followed. The cells were washed once with an assay buffer, Hank's buffer solution containing 25 mM glucose and with 10 mM HEPES (pH 7.4), and then the assay buffer was replaced by an assay buffer to which the test compound was added. After adding [^3H] taurocholate to a final concentration of 8 μM, the cells were incubated at 37° C. for 60 minutes. [^3H] taurocholate was allowed to be incorporated in Cos 7 cells through human IBAT or rat IBAT. The reaction was stopped by washing twice with a buffer prepared by adding 1 mM taurocholate to the assay buffer and lyzing the cells with 0.2M NaOH. Measurement of radioactivity was carried out by introducing the cell lyzate in 4 ml of liquid scintillation cocktail, stirring the mixture well, and then measuring the radioactivity by a scintillation counter.
row,Structure (SMILES),IC50 [nM]
1,CCCCCCCCCC[N+](C)(C)Cc1ccc(NC(=S)Nc2cccc(C3NC(CCCC)(CCCC)CS(=O)(=O)c4ccc(N(C)C)cc43)c2)cc1 (centres unmarked) [Example 3414],88
2,CCCCC1(CCCC)CS(=O)(=O)c2ccc(N(C)C)cc2C(c2cccc(NC(=S)Nc3ccc(C[n+]4ccc(C)c(C)c4)cc3)c2)N1 (centres unmarked) [Example 3727],66
3,CCCCCCCC[N+](C)(C)Cc1ccc(NC(=S)Nc2cccc(C3NC(CCCC)(CCCC)CS(=O)(=O)c4ccc(N(C)C)cc43)c2)cc1 (centres unmarked) [Example 3412],75
4,CCCCC1(CCCC)CS(=O)(=O)c2ccc(N(C)C)cc2C(c2cccc(NC(=S)Nc3ccc(C[N+](C)(C)Cc4cccs4)cc3)c2)N1 (centres unmarked) [Example 3449],55
5,CCCCC1(CCCC)CS(=O)(=O)c2ccc(N(C)C)cc2C(c2cccc(NC(=S)Nc3ccc(C[N+]4(CC)CCCC4)cc3)c2)N1 (centres unmarked) [Example 3568],94
6,CCCCCCOC(=O)c1ccc[n+](Cc2ccc(NC(=S)Nc3cccc(C4NC(CCCC)(CCCC)CS(=O)(=O)c5ccc(N(C)C)cc54)c3)cc2)c1 (centres unmarked) [Example 3750],75
7,CCCCC1(CCCC)CS(=O)(=O)c2ccc(N(C)C)cc2C(c2cccc(NC(=S)Nc3ccc(C[n+]4ccc(CCCO)cc4)cc3)c2)N1 (centres unmarked) [Example 3733],57
8,CCCCC1(CCCC)CS(=O)(=O)c2ccc(N(C)C)cc2C(c2cccc(NC(=S)Nc3ccc(C[n+]4cccc(-c5cccs5)c4)cc3)c2)N1 (centres unmarked) [Example 3726],73
9,CCCCC1(CCCC)CS(=O)(=O)c2ccc(N(C)C)cc2C(c2cccc(NC(=S)NCCCCCC[N+]34CCC(CC3)CC4)c2)N1 (centres unmarked) [Example 1810],167
10,CCCCC1(CCCC)CS(=O)(=O)c2ccc(N(C)C)cc2C(c2cccc(NC(=S)Nc3ccc(C[n+]4ccc(CCc5ccncc5)cc4)cc3)c2)N1 (centres unmarked) [Example 3764],80
11,CCCCC1(CCCC)CS(=O)(=O)c2ccc(N(C)C)cc2C(c2cccc(NC(=S)Nc3ccc(C[n+]4cccc5cc(C)ccc54)cc3)c2)N1 (centres unmarked) [Example 3770],57
12,CCCCC1(CCCC)CS(=O)(=O)c2ccc(N(C)C)cc2C(c2cccc(NC(=S)Nc3ccc(C[n+]4cccc5cc(C(C)C)ccc54)cc3)c2)N1 (centres unmarked) [Example 3772],89
13,CCCCC1(CCCC)CS(=O)(=O)c2ccc(N(C)C)cc2C(c2cccc(NC(=S)Nc3ccc(C[N+](C)(CCC)CCC)cc3)c2)N1 (centres unmarked) [Example 3426],58
14,CCCCC1(CCCC)CS(=O)(=O)c2ccc(N(C)C)cc2C(c2cccc(NC(=S)Nc3cccc(C[N+](C)(CCC)CCC)c3)c2)N1 (centres unmarked) [Example 4243],78
15,CCCCC1(CCCC)CS(=O)(=O)c2ccc(N(C)C)cc2C(c2cccc(NC(=S)Nc3ccc(C[N+]4(C)CCC(O)CC4)cc3)c2)N1 (centres unmarked) [Example 3599],54
16,CCCCC1(CCCC)CS(=O)(=O)c2ccc(N(C)C)cc2C(c2cccc(NC(=S)Nc3cccc(C[N+](C)(C)Cc4cccc(OC)c4)c3)c2)N1 (centres unmarked) [Example 4371],74
17,CCCCC1(CCCC)CS(=O)(=O)c2ccc(N(C)C)cc2C(c2cccc(NC(=S)Nc3ccc(C[n+]4cccc(Cc5ccccc5)c4)cc3)c2)N1 (centres unmarked) [Example 3725],52
18,CCCCC1(CCCC)CS(=O)(=O)c2ccc(N(C)C)cc2C(c2cccc(NC(=S)Nc3cccc(C[N+](C)(C)CCCC)c3)c2)N1 (centres unmarked) [Example 4226],99
19,C=Cc1ccc(C[N+](C)(C)Cc2cccc(NC(=S)Nc3cccc(C4NC(CCCC)(CCCC)CS(=O)(=O)c5ccc(N(C)C)cc54)c3)c2)cc1 (centres unmarked) [Example 4263],72
20,CCCCC1(CCCC)CS(=O)(=O)c2ccc(N(C)C)cc2C(c2cccc(NC(=S)Nc3ccc(C[n+]4cccc5c4CCCC5)cc3)c2)N1 (centres unmarked) [Example 4221],43
21,CCCCC1(CCCC)CS(=O)(=O)c2ccc(N(C)C)cc2C(c2cccc(NC(=S)NCCCCC[N+]34CCC(CC3)CC4)c2)N1 (centres unmarked) [Example 1433],103
22,CCC#CC[N+](C)(C)Cc1ccc(NC(=S)Nc2cccc(C3NC(CCCC)(CCCC)CS(=O)(=O)c4ccc(N(C)C)cc43)c2)cc1 (centres unmarked) [Example 3434],71
23,CCCCC1(CCCC)CS(=O)(=O)c2ccc(N(C)C)cc2C(c2cccc(NC(=S)Nc3ccc(C[N+](C)(C)CCOC(=O)c4ccccc4)cc3)c2)N1 (centres unmarked) [Example 3558],70
24,C=CC[N+](C)(C)Cc1cccc(NC(=S)Nc2cccc(C3NC(CCCC)(CCCC)CS(=O)(=O)c4ccc(N(C)C)cc43)c2)c1 (centres unmarked) [Example 4246],72
25,CCCCCC[N+](C)(C)Cc1ccc(NC(=S)Nc2cccc(C3NC(CCCC)(CCCC)CS(=O)(=O)c4ccc(N(C)C)cc43)c2)cc1 (centres unmarked) [Example 3410],68
26,CCCCC1(CCCC)CS(=O)(=O)c2ccc(N(C)C)cc2C(c2cccc(NC(=S)NCCCCCC[N+](C)(C)Cc3ccccc3)c2)N1 (centres unmarked) [Example 1555],153
27,CCCCC1(CCCC)CS(=O)(=O)c2ccc(N(C)C)cc2C(c2cccc(NC(=S)Nc3ccc(C[N+](C)(C)CC(C)O)cc3)c2)N1 (centres unmarked) [Example 3454],68
28,CCCCC1(CCCC)CS(=O)(=O)c2ccc(N(C)C)cc2C(c2cccc(NC(=S)Nc3ccc(C[N+]45CCC(CC4)C(O)C5)cc3)c2)N1 (centres unmarked) [Example 3697],69

# Results, then the molecule that gave them:
row,IC50 [nM],Structure (SMILES)
1,77,CCCCC1(CCCC)CS(=O)(=O)c2ccc(N(C)C)cc2C(c2cccc(NC(=S)Nc3ccc(C[n+]4cccc(F)c4)cc3)c2)N1 (centres unmarked) [Example 5416]
2,79,CCCCC1(CCCC)CS(=O)(=O)c2ccc(N(C)C)cc2C(c2cccc(NC(=S)Nc3cccc(C[N+](C)(C)C(C)c4cccc5ccccc45)c3)c2)N1 (centres unmarked) [Example 4605]
3,42,CCCCC1(CCCC)CS(=O)(=O)c2ccc(N(C)C)cc2C(c2cccc(NC(=S)Nc3ccc(C[n+]4c(C)cc(C)cc4C)cc3)c2)N1 (centres unmarked) [Example 5409]
4,26,CCCCC1(CCCC)CS(=O)(=O)c2ccc(N(C)C)cc2C(c2cccc(NC(=S)Nc3ccc(C[n+]4cc(O)cc(Cl)c4)cc3)c2)N1 (centres unmarked) [Example 5417]
5,78,CCCCC1(CCCC)CS(=O)(=O)c2ccc(N(C)C)cc2C(c2cccc(NC(=S)Nc3cccc(C[n+]4ccc5ccccc5c4)c3)c2)N1 (centres unmarked) [Example 4600]
6,87,CCCCC1(CCCC)CS(=O)(=O)c2ccc(N(C)C)cc2C(c2cccc(NC(=S)Nc3cccc(C[n+]4cc(C)cc(C)c4)c3)c2)N1 (centres unmarked) [Example 4546]
7,91,CCCCC1(CCCC)CS(=O)(=O)c2ccc(N(C)C)cc2C(c2cccc(NC(=S)Nc3cccc(C[n+]4ccc(CCC)cc4)c3)c2)N1 (centres unmarked) [Example 4528]
8,76,CCCCC1(CCCC)CS(=O)(=O)c2ccc(N(C)C)cc2C(c2cccc(NC(=S)Nc3cccc(C[n+]4ccc(OC)cc4)c3)c2)N1 (centres unmarked) [Example 4551]
9,69,CCCCC1(CCCC)CS(=O)(=O)c2ccc(N(C)C)cc2C(c2cccc(NC(=S)Nc3ccc(C[n+]4cccc(Cl)c4)cc3)c2)N1 (centres unmarked) [Example 5418]
10,62,CCCCC1(CCCC)CS(=O)(=O)c2ccc(N(C)C)cc2C(c2cccc(NC(=S)Nc3cccc(C[N+]4(CC)CCCCC4)c3)c2)N1 (centres unmarked) [Example 4405]
11,73,C=CC[N+]1(Cc2cccc(NC(=S)Nc3cccc(C4NC(CCCC)(CCCC)CS(=O)(=O)c5ccc(N(C)C)cc54)c3)c2)CCCCC1 (centres unmarked) [Example 4408]
12,76,CCCCC1(CCCC)CS(=O)(=O)c2ccc(N(C)C)cc2C(c2cccc(NC(=S)Nc3cccc(C[n+]4ccc(-c5ccccc5)cc4)c3)c2)N1 (centres unmarked) [Example 4534]
13,46,CCCCC1(CCCC)CS(=O)(=O)c2ccc(N(C)C)cc2C(c2cccc(NC(=S)Nc3cccc(C[n+]4cccc5cc(C(C)C)ccc54)c3)c2)N1 (centres unmarked) [Example 4589]
